Series [1] is described as follows: Kinetic solubility in FeSSIF and FaSSIF. Type of series: physicochemical. The following applies: for Solubility in comparison to the hemihydrate form (WO2008069327A1): FeSSIF and FaSSIF, 1 h, 4 h, 24 h; for Solubility in comparison to the hemihydrate form (WO2008069327A1) / solubility at 1 h / solubility at 4 h / solubility at 24 h: RT; for solubility at 1 h / solubility at 4 h / solubility at 24 h: thermodynamic from solid. The protocol: Kinetic solubility of canagliflozin in crystalline Form B and its hemihydrate form in fed state simulated intestinal fluid (FeSSIF) and fasted state simulated intestinal fluid (FaSSIF) were measured using the following procedures:
1. Weighed approximately 30 mg of compound into a tared 4 mL plastic vial and recorded the actual weight of the compound.
2. Added 3 mL of water or bio-relevant medium into each vial.
3. Covered the vials with caps and kept all the suspension samples stirring at RT using a rolling incubator with a speed of 25 r/min.
4. Sampled at 1 h, 4 h and 24 h respectively.
5. Centrifuged the filtration tubes in a speed of 8500 rpm for 3 minutes at RT, collected 0.2 mL supernatant for HPLC quantification determination and the rest of solution for pH measurement, and separated the solid for XRPD characterization.
Kinetic solubility of canagliflozin Form C and hemihydrate in fed state simulated intestinal fluid (FeSSIF) and fasted state simulated intestinal fluid (FaSSIF) were measured using the following procedures:
5. Centrifuged filtration tubes in a speed of 8500 rpm for 3 minutes at RT, collected 0.2 mL supernatant for HPLC quantification determination and the rest of solution for pH measurement, and separated the solid for XRPD characterization.

The nature of series [2]: Stability assessment of Form B under stress conditions (XRPD after storage). The series is classed as physicochemical. The note with it: 30 days; for Final form: dish open, XRPD. The protocol:
Two samples of canagliflozin Form B were stored under 25° C./60% RH and 40° C./75% RH, respectively, with dish open for 30 days. The solid samples were analyzed by XRPD.

In general, Solubility refers to the dissolved amount per volume that the medium holds. Higher therefore signals much dissolved substance. Broadly, the solubility is the concentration that dissolves in the medium under given conditions. A higher solubility goes with much dissolved substance.

Values after ≈ are worked out from the molar mass of the structure shown.

Turning to `Cc1ccc([C@@H]2O[C@H](CO)[C@@H](O)[C@H](O)[C@H]2O)cc1Cc1ccc(-c2ccc(F)cc2)s1` [Form C, (2S,3R,4R,5S,6R)-2-{3-[5-[4-fluoro-phenyl)-thiophen-2-ylmethyl]-4-methyl-phenyl -}-6-hydroxymethyl-tetrahydro-pyran-3,4,5-triol], the “Solubility at RT” value is 410 µg/mL (≈ 0.922 mM) in series [1] (FaSSIF, time point 1 h); 440 µg/mL (≈ 0.99 mM) in series [1] (FaSSIF, time point 4 h); 420 µg/mL (≈ 0.945 mM) in series [1] (FaSSIF, time point 24 h); 4600 µg/mL (≈ 10.3 mM) in series [1] (FeSSIF, time point 1 h); 4700 µg/mL (≈ 10.6 mM) in series [1] (FeSSIF, time point 4 h); 4500 µg/mL (≈ 10.1 mM) in series [1] (FeSSIF, time point 24 h). Moreover, the “Solubility in comparison to the hemihydrate form (WO2008069327A1)” value in series [1] was “higher solubility”.

With `Cc1ccc([C@@H]2O[C@H](CO)[C@@H](O)[C@H](O)[C@H]2O)cc1Cc1ccc(-c2ccc(F)cc2)s1` [Form B, (2S,3R,4R,5S,6R)-2-{3-[5-[4-fluoro-phenyl)-thiophen-2-ylmethyl]-4-methyl-phenyl -}-6-hydroxymethyl-tetrahydro-pyran-3,4,5-triol], in series [2] (25° C./60% RH and 40° C./75% RH), the “Stability under the stress conditions” value was “stable”. In addition, the Final form entry in series [2] (stored under 25° C./60% RH) and in series [2] (stored under 40° C./75% RH) was “Form B” each time. The “Solubility in comparison to the hemihydrate form (WO2008069327A1)” value in series [1] is given as “higher solubility”. Moreover, the solubility at 1 h in series [1] (fasted state simulated intestinal fluid (FaSSIF), fassif, time point 1 h) is 500 µg/mL (≈ 1.12 mM); in series [1] (fed state simulated intestinal fluid (FeSSIF), fessif, time point 1 h) it was 4720 µg/mL (≈ 10.6 mM). Moreover, the solubility at 4 h was 510 µg/mL (≈ 1.15 mM) in series [1] (fasted state simulated intestinal fluid (FaSSIF), fassif, time point 4 h) and 4760 µg/mL (≈ 10.7 mM) in series [1] (fed state simulated intestinal fluid (FeSSIF), fessif, time point 4 h). Further, the solubility at 24 h is 480 µg/mL (≈ 1.08 mM) in series [1] (fasted state simulated intestinal fluid (FaSSIF), fassif, time point 24 h) and 4350 µg/mL (≈ 9.79 mM) in series [1] (fed state simulated intestinal fluid (FeSSIF), fessif, time point 24 h).

`Cc1ccc([C@@H]2O[C@H](CO)[C@@H](O)[C@H](O)[C@H]2O)cc1Cc1ccc(-c2ccc(F)cc2)s1` [WO2008069327A1 hemihydrate, (2S,3R,4R,5S,6R)-2-{3-[5-[4-fluoro-phenyl)-thiophen-2-ylmethyl]-4-methyl-phenyl -}-6-hydroxymethyl-tetrahydro-pyran-3,4,5-triol, reference compound]: the “Solubility at RT” value came to 360 µg/mL in series [1] (FaSSIF, time point 1 h); 370 µg/mL in series [1] (FaSSIF, time point 4 h); 370 µg/mL in series [1] (FaSSIF, time point 24 h); 3340 µg/mL in series [1] (FeSSIF, time point 1 h); 3500 µg/mL in series [1] (FeSSIF, time point 4 h); 3700 µg/mL in series [1] (FeSSIF, time point 24 h).

The values above are taken from patent publication US20160280731A1, “CRYSTALLINE FORMS B, C, and D OF CANAGLIFLOZIN” (CRYSTAL PHARMATECH CO., LTD, priority 2013, published 2016).
